From article PMC6052247, “Structurally Diverse Polyketides From the Mangrove-Derived Fungus Diaporthe sp. SCSIO 41011 With Their Anti-influenza A Virus Activities” (Frontiers in Chemistry, 2018)

The molecules below were run on A/Puerto Rico/8/34 H274Y (H1N1).
Assay type: cell-based, Influenza A virus

Going from CCCCCc1cc(=O)c2c(CC(=O)OC)cc(O)cc2o1 [Compound 14, pestalotiopsone F] to 5-chloroisorotiorin, the IC50 falls from 21.8 ± 7.96 µM to 2.52 ± 0.21 µM (8.7-fold). The second is the more potent here.

Work on CCCCCCCc1cc(=O)c2c(CC(=O)OCC)cc(O)cc2o1 [Compound 15, pestalotiopsone B] yielded an IC50 of 2.56 ± 0.32 µM.
